The values that follow come from US20040259942A1, “Modulation of stat activity” (priority 2001, published 2004).

For this assay, the system named is poly ADP-ribose polymerase (PARP). Briefly: PARP cleavage by Western blotting. The format is cell-based, human. As to conditions: 100 μM, 18 hours. As for the experimental part: OdDHL induces apoptosis of BC cells (a) MCF-7 cells were cultured in full medium alone or in the presence of 1001M OdDHL or 100 μM OHHL. After 18 hours cells were fixed, stained with DAPI and examined by confocal microscopy. Left-hand panels show DAPI, right-hand panels show the corresponding phase contrast and middle panels the image overlays. (b) MDA-MB-468 cells were cultured in full medium alone or in the presence of 100 μM OdDHL or 100 μM OHHL. After 18 hours cells were fixed, stained and examined as in (a). (c) BR293, MCF-7 and MDA-MD-468 cells were cultured in full medium alone (lanes 1, 3, 5) or in the presence of 100 μM OdDHL (lanes 2, 4, 6) or 400 μM etoposide (lane 7). After 18 hours cells were lysed and analysed for PARP cleavage by Western blotting with an anti-PARP antibody. Full length PARP is labelled and the lower arrow indicates the major caspase cleavage fragment.

Take `CCCCCCCCCC(=O)CC(=O)N[C@H]1CCOC1=O` [OdDHL, N-(3-oxo-dodecanoyl)-L-homoserine lactone]: the PARP cleavage result is, setting by setting: (BR293 cells) “characteristic cleavage fragment was detected”; (MCF-7 cells) “induced PARP cleavage”; (MDA-MB-468 cells, compared with 400 μM etoposide) “to the same extent as etoposide”.
